Source: the NIST ThermoML archive (doi:10.1016/j.fluid.2011.11.023)
± gives the expanded uncertainty stated by the source.

Conditions: Crystal; visual observation

Structure (SMILES): Nc1cccnc1 [β-aminopyridine]
- Normal melting temperature: 64.50 ± 0.5 °C
